From US20110182982A1, “LIPOSOME TREATMENT OF VIRAL INFECTIONS” (University of Oxford, priority 2006, published 2011)
Where two headings read alike, the source gives them in different places.

Columns and labels:
ncp BVDV [1] = experiment: BVDV secretion from infected MDBK cells, real-time PCR; assay type: cell-based, bovine viral diarrhea virus; conditions: 750 nM, 3 days
Description: In a first study using the ncp strain of BVDV, NB-DNJ was added freely to the culture medium, so that final concentrations ranged between 0 and 750 nM. In separate incubations, NB-DNJ DCPP liposomes were added so that the final lipid concentration was 50 μM and final concentrations of NB-DNJ ranged between 0 and 750 nM. Experiments were carried out in duplicate in 6-well plates. The quantity of secreted BVDV viral particles was measured following 3 days of incubation. Virus secretion analysis was performed by quantitative PCR (real-time PCR) on viral RNA extracted from 500 μl of supernatant. Real-time PCR used primers directed against the ncp BVDV RNA where the forward primer sequence was […] (SEQ ID NO:1), and the reverse primer sequence was […] (SEQ ID NO:2). Results are expressed as the percentage of RNA copies present in treated samples as compared to the untreated control (=100% on the x axis).

[2] = pH sensitivity of DCPP liposomes (calcein leakage); assay type: physicochemical; conditions: 1 mM encapsulated, pH 5.0-7.4, vs calcein only liposomes
Description: DCPP liposomes encapsulating 1-mM DNJ, NB-DNJ, or NN-DNJ in 80-mM calcein buffer were compared with empty (calcein only) liposomes to determine the effects of the alkyl chain of NB-DNJ and NN-DNJ on the pH-sensitivity. 10 μl of calcein-loaded DCPP liposomes (final phospholipid concentration, 5 μM) was added to 2 ml of MES-buffered saline at various pH values ranging from 5.0-7.4, and left to incubate with shaking 15 min at 37° C. Following incubation, calcein fluorescence was measured before and after the addition of Triton to a final concentration of 0.1%. Fluorescence intensities obtained at acidic pH values were corrected for the slight effect of pH on calcein fluorescence. The percentage of calcein release at each pH was calculated using the formula: % leakage=((in−I0)/(I100−I0))×100, where I0 is the fluorescence at neutral pH, In is the corrected intensity at acidic pH before the addition of Triton, and I100 is the total dequenched calcein at neutral pH.

[3] = tested on: HIV envelope protein gp120; experiment: 2G12 and b12 binding to gp120 expressed in CHO cells, capture ELISA; assay type: cell-based
Description: In the following example, the activity of NB-DNJ as measured by the inhibition of glycan processing on the HIV envelope protein, gp120, is determined following expression in CHO cells in the presence of free or DCPP liposome-encapsulated NB-DNJ.
CHO cells expressing a soluble form of HIV gp120 were incubated in the presence of free NB-DNJ with concentrations ranging between 0-5 mM, or with liposomes encapsulating NB-DNJ with final concentrations in the medium ranging between 0 and 750 nM. Cells were left to incubate for 5 days before cellular supernatant containing the treated gp120 was collected. To measure the inhibition of glycan processing on gp120 expressed in the presence of NB-DNJ (either free or in liposomes), the binding of the MAb 2G12 was determined by capture ELISA. 2G12 recognizes a cluster of mannose residues on the carbohydrate-rich surface of gp120, and loss of binding in the presence of NB-DNJ results from the retention of glucose on the oligomannose glycans that form the epitope. A loss of binding affinity, however, may also arise from a misfolding of the protein, and to distinguish between these two possibilities, the affinity of all samples for the neutralizing MAb, b12, is also measured. […] Soluble gp120 located in the cellular supernatant was captured in ELISA plates using the D7324 antibody (binds the C5 region of gp120) and treated with 10 μg/ml of either 2G12 or b12. The binding of both antibodies to NB-DNJ-treated samples was related to that for the untreated gp120, where data are expressed as percent binding and represent the mean±S.D. of triplicates from four separate experiments.

cp BVDV = experiment: Yield reduction (plaque) assay; assay type: cell-based, bovine viral diarrhea virus; conditions: for IC50: Bovine viral diarrhea virus isolates and strains, read-out: IC50, secretion of infectious BVDV
Description: The antiviral effect of liposome-included NB-DNJ was also tested against the cp BVDV, using the yield reduction assay, a method which takes advantage of the cp strain being able to form plaques on monolayers of infected cells.
FIG. 7 represents the effect of free vs. DC liposome-encapsulated NB-DNJ, on secretion of infectious cp BVDV. MDBK cells infected with cp BVDV were treated for 3 days with either free or DC liposome-NB-DNJ, so that the final NB-DNJ concentrations ranged between 0 and 500 μM and the total lipid concentration was 100 μM. The supernatants were then removed and used to infect fresh MDBK monolayers in six-well plates. After 3 days the plaques were counted under the microscope (plaque assay) and the results were expressed as a percentage of the number of plaques resulting from infection with no drug supernatant (=100%) (x axis). The y axis indicates the free or DC liposome-included NB-DNJ concentrations used in the plaque assay. The IC50 is indicated at the bottom of the graph.

ncp BVDV [4] = experiment: Infectivity of secreted ncp BVDV on naive MDBK cells, immunofluorescence; assay type: cell-based, bovine viral diarrhea virus
Description: Using BVDV viral particles collected from the previous experiment (500 μl of supernatant containing secreted BVDV), the infectivity of secreted NB-DNJ-treated BVDV was determined by incubation with naïve MDBK cells for 3 days followed by immunofluorescent staining to identify BVDV proteins in infected cells. Cells were stained post-infection using an anti-BVDV NS2-NS3 monoclonal antibody, followed by a FITC-labelled secondary antibody. Experiments were performed in duplicate using 6-well plates. The percent viral infectivity was calculated by the number of infected cells, identified by the presence of non-structural BVDV proteins, divided by the total cell count determined by DAPI staining of cell nuclei. Results were also normalized to account for decreased or increased viral titres in each sample (results from BVDV secretion experiments).

[5] = 7.5 nM, liposome-mediated delivery

Structure (SMILES): CCCCN1C[C@H](O)[C@@H](O)[C@H](O)[C@H]1CO [NB-DNJ, N-butyl-1,5-dideoxy-1,5-imino-D-glucitol]
- decrease in number of secreted viral particles (ncp BVDV [1]; DCPP liposome-mediated delivery): 2 fold
- effect on number of secreted viral particles (ncp BVDV [1]; free delivery): no effect
- pH sensitivity / stability of DCPP liposomes [2]: significant decrease in pH sensitivity
- gp120 binding to 2G12 [3, 5]: 9.8±4.8%
- gp120 binding to b12 [3, 5]: 96.3±3.2%
- gp120 binding to 2G12 ([3]; 0.5-mM free in the medium): 1.2±0.1%
- gp120 binding to b12 ([3]; 0.5-mM free in the medium): 100%
- better inhibition, DC liposomes vs free (cp BVDV): 8 fold
- IC50 (cp BVDV; free drug): 175 µM
- IC50 (cp BVDV; included in DC liposomes, total lipid 100 μM): 20 µM
- effect on BVDV infectivity (ncp BVDV [4]; 750 nM added freely to the medium): little to no effect
- naive MDBK cells infected by viral progeny (ncp BVDV [4]; 750 nM delivered via DCPP liposomes): less than 1%
- antiviral effect vs controls (ncp BVDV [4]; 750 nM in DCPP liposomes): over 20 fold
- naive MDBK cells infected by viral progeny (ncp BVDV [4]; free, up to 750 nM): approximately 20%
